Source: the Biogen ADME set (Fang et al. 2023)
Converted amounts (≈) assume the structure as drawn.

Settings: for aqueous solubility: pH 6.8

Row | intrinsic clearance, human liver microsomes [L/h/kg] | intrinsic clearance, rat liver microsomes [L/h/kg] | MDR1-MDCK efflux ratio | aqueous solubility [mg/mL] | fraction unbound, human plasma | fraction unbound, rat plasma | Structure (SMILES)
1 | 13.1 | 168 |  |  |  |  | Fc1cc(CCNc2ncnc3sccc23)c2c(c1)COCO2
2 |  |  | 0.918 | 0.00076 (≈ 1.51 µM) |  |  | Cc1csc(-c2nnc(Nc3ccc(Oc4ncccc4-c4ccnc(N)n4)cc3)c3ccccc23)c1
3 | 1.91 | 27.9 | 2.06 | 0.0558 (≈ 149 µM) |  |  | COc1ccc(-c2ccc(CN(CCN(C)C)Cc3ccncc3)cc2)cc1
4 | 40.7 | 132 | 0.495 |  |  |  | O=C(OCC1CCSCC1)c1cccc(-n2cccn2)n1
5 | 9.72 | 92.5 |  |  | 0.00426 | 0.00652 | Cc1cc(C)c2c(N)c(C(=O)NCc3ccc(Cl)cc3)sc2n1
6 | 0.445 | 9.09 | 2.87 |  |  |  | CCCNC(=O)C1(NCc2csnn2)CCCCC1
7 | 0.763 | 11.1 | 0.457 | 0.029 (≈ 90.4 µM) |  |  | Cc1cc(NC(=O)C2CCN(c3ccncc3Cl)CC2)no1
8 | 2.78 | 19.8 | 1.94 | 0.0535 (≈ 137 µM) |  |  | COc1cc(CNCCN2CCOCC2)cc(Cl)c1OCc1ccccc1
9 | ≤ 0.284 | ≤ 0.64 | 4.14 |  |  |  | O=C(Nc1nnc2n1CCCC2)c1cscn1
10 |  |  | 0.816 | 0.0004 (≈ 0.925 µM) |  |  | Nc1nc(N)c2c(OCC3CCN(Cc4c(Cl)cccc4Cl)CC3)cccc2n1
11 | 0.39 | 1.94 | 20.2 |  |  |  | CN(C)C(=O)c1cncc(N(C)CCN(C)C2CCCC2)n1
12 | 3.77 | 39.2 |  |  |  |  | Cc1nccc(-c2cccc(NCC(=O)NCc3ccccc3)c2)n1
13 | 5.14 | 4.93 |  | 0.0292 (≈ 115 µM) |  |  | CNc1cc(C)nc(-c2ccnc3c2ccn3C)n1
14 | ≤ 0.284 | ≤ 0.64 | 2.27 | 0.047 (≈ 212 µM) |  |  | O=C1CN(C(=O)c2ccc(F)cc2)CCN1
15 | 13.7 | 47.8 | 67.7 | 0.0458 (≈ 102 µM) | 0.048 |  | CC(=O)NCCNc1cc(Cl)nn2c(-c3cccc(S(=O)(=O)N(C)C)c3)c(C)nc12
16 | 6.78 | 169 | 1.02 |  |  |  | COc1cccc(Cc2nc3sc4c(c3c(=O)[nH]2)CCSC4)c1
17 | 4.44 | 8.61 | 0.671 |  |  |  | CN1CCNc2nc3ccccc3nc21
18 |  |  | 0.86 | 0.00035 (≈ 0.694 µM) |  |  | FC(F)(F)c1ccc(Nc2nc3cc(Oc4ccnc(-c5ncc(C(F)(F)F)[nH]5)c4)ccc3[nH]2)cc1
19 | 1.56 | 8.77 | 0.232 | 0.023 (≈ 87.1 µM) |  |  | CCc1nc(NC(=O)c2ccccc2F)sc1C
20 | 1.4 | 9.1 | 5.29 | 0.0221 (≈ 73.1 µM) |  |  | CC(/C=C/C(=O)NO)=C\[C@@H](C)C(=O)c1ccc(N(C)C)cc1
21 | 0.796 | 4.82 | 15.1 | 0.0187 (≈ 53.8 µM) |  |  | CCC(=O)NCCNC(=O)c1cc(-c2ccccc2)nc2ccccc12
22 | 2.26 | 0.858 | 0.676 |  |  |  | O=C(Nc1cncc2ccccc12)c1ncccn1
23 | 11.6 | 158 | 0.691 |  |  |  | Cc1cnc(N2CCSCC2)nc1N1CCSCC1
24 | 2.93 | 5.71 |  |  | 0.0779 | 0.146 | O=C1NCCSc2c1sc1ccc(O)cc21
25 | 59.4 | 230 | 3.17 |  |  |  | O=C(c1ccccc1N1CCOCC1)N(Cc1ccccn1)C1CCCCC1
26 | ≤ 0.284 | 5.02 | 0.645 |  |  |  | Cn1c(=O)n(Cc2cccnc2)c(=O)c2ccc(C(F)(F)F)nc21
27 | 25.9 | 232 | 1.45 |  |  |  | Cc1ccc(NC(=O)CN(C)C2CCCCC2)cc1S(=O)(=O)N(C)C
28 | 2.06 | 13 | 0.521 | 0.00888 (≈ 26.6 µM) |  |  | CNC(=O)c1cnc(/C=C/c2csc(-c3cccs3)n2)s1

Row | intrinsic clearance, human liver microsomes [L/h/kg] | intrinsic clearance, rat liver microsomes [L/h/kg] | MDR1-MDCK efflux ratio | aqueous solubility [mg/mL] | fraction unbound, human plasma | fraction unbound, rat plasma | Structure (SMILES)
29 | ≤ 0.284 | 8.46 |  | 0.0522 (≈ 231 µM) |  |  | c1cc(CC2CCNCC2)c2cccnc2c1
30 | ≤ 0.284 | ≤ 0.64 |  | 0.0488 (≈ 209 µM) |  |  | O=C(Cn1ccnc1)NCc1ccccc1F
31 | 3.62 | 10 |  | 0.0464 (≈ 145 µM) |  |  | COc1ccccc1C(=O)Nc1cccc(-c2ccnc(C)n2)c1
32 | 0.57 | 6.5 | 39.1 | 0.0904 (≈ 173 µM) |  |  | COc1cccc(OC)c1-c1cc(C(=O)N[C@@H](CC(C)C)C(=O)O)nn1-c1ccnc2cc(Cl)ccc12
33 | ≤ 0.284 | ≤ 0.64 |  | 0.0594 (≈ 219 µM) |  |  | CC(=O)NCc1ncc(-c2ccccc2C(=O)O)cn1
34 |  |  |  | 0.00047 (≈ 1.07 µM) |  |  | CC(C)NS(=O)(=O)c1ccc2c(c1)oc(=O)c1cc(S(=O)(=O)NC(C)C)ccc12
35 | 4.58 | 30.6 | 1.22 |  |  |  | Cc1cccc(N2CCN(CCCCNC(=O)c3c(F)cccc3F)CC2)c1
36 | 0.436 | 1.95 | 39.9 |  | 0.44 | 0.612 | Cn1cc(Nc2nccc(N3CC4CCC(C3)N4C(=O)[C@@H]3CC3(F)F)n2)cn1
37 |  |  | 1.25 |  | 0.00764 | 0.0171 | COc1ccc(OC[C@@H]2c3cc(OC)c(OC)cc3CCN2C(=O)c2cccc(Cl)c2)cc1
38 | 0.927 | 8.2 |  | 0.0518 (≈ 165 µM) |  |  | COc1cc(CN(C)C(=O)Nc2cccc(C)c2C)ccc1O
39 | 0.581 | 9.29 | 11.2 |  |  |  | Cc1cccc(C)c1OCC(=O)N(C)[C@@H]1CCC[C@@H](O)[C@@H]1O
40 | 1.79 | 22.1 |  |  |  |  | COc1ccc2c(c1)C(=O)N(c1ccc(C)cc1)C(=O)C2
41 | ≤ 0.284 | 1.18 |  | 0.0368 (≈ 112 µM) |  |  | CN(CCN(C)C1CCCC1)C(=O)c1ccc(-c2nc[nH]n2)cc1
42 | 2.04 | 22.3 | 0.884 | 0.0162 (≈ 72.9 µM) |  |  | C1CCC(OCc2noc(C3CC3)n2)CC1
43 | 7.83 |  | 0.917 |  | 0.00283 | 0.0053 | Cc1cccc(/C=N/Nc2cc(N3CCOCC3)nc(OCCc3ccccn3)n2)c1
44 | 16.1 | 58.9 | 51.7 |  |  |  | CC(C)NC(=O)C1(Cc2ccccc2-c2ccncc2)CCOCC1
45 | 0.462 | 13.7 | 0.566 | 0.0344 (≈ 111 µM) |  |  | Brc1cc2c(cc1Cn1cncn1)OCCCO2
46 | 18.1 | 83.6 | 2.86 | 0.00337 (≈ 9.2 µM) |  |  | Cc1ccc(C)c(OCC(=O)N2CCC(C(=O)Nc3ccccc3)CC2)c1
47 |  |  |  | 0.0241 (≈ 102 µM) |  |  | CC(C)CC(=O)Nc1ccc(Cl)c(C#N)c1
48 | 2.22 | 7.05 | 0.408 | 0.0256 (≈ 97.4 µM) |  |  | CNc1nc(-c2cc(OC)cc(OC)c2)ncc1F
49 | 4.95 | 45.9 | 0.798 | 0.0199 (≈ 85.2 µM) |  |  | CCCn1ncnc1-c1ccccc1SC
50 | 0.713 | 8.74 | 1.27 | 0.00517 (≈ 14.2 µM) |  |  | Cn1c(=O)c2c(nc3n2CCN3Cc2c(F)cccc2Cl)n(C)c1=O
51 | ≤ 0.284 | ≤ 0.64 | 82.6 |  |  |  | CCN(Cc1nc(C)no1)C(=O)c1cc(C)c(C)n(C)c1=O
52 | 131 | 241 | 1.51 | 0.0469 (≈ 119 µM) |  |  | COc1ccccc1CNC(=O)C(C)N1CCCN(c2ccccc2C#N)CC1 (stereo not drawn)
53 | ≤ 0.284 | ≤ 0.64 | 1.04 | 0.0443 (≈ 215 µM) |  |  | O=C(Nc1nncs1)c1cccnc1
54 | 0.796 | 28.3 | 0.621 | 0.0561 (≈ 206 µM) |  |  | Cc1cccc(C)c1OCC(=O)N(C)C1(C#N)CCC1
55 |  |  |  | 0.00081 (≈ 3.06 µM) |  |  | CN(C)c1nc(-c2cccc(-c3ccccc3)c2)n[nH]1

Row | Structure (SMILES) | intrinsic clearance, human liver microsomes [L/h/kg] | intrinsic clearance, rat liver microsomes [L/h/kg] | MDR1-MDCK efflux ratio | aqueous solubility [mg/mL] | fraction unbound, human plasma | fraction unbound, rat plasma
56 | O=c1[nH]c2ccccc2n1C1CCN(Cc2csc(COc3ccc(F)cc3)n2)CC1 | 12.5 | 65.6 |  |  |  | 
57 | CCN1CCC(N(C)c2ncnc3c2cnn3C)CC1 | 9.12 | 2.22 | 1.01 | 0.0412 (≈ 150 µM) |  | 
58 | CSc1ccc(-c2ccc3n(c2=O)C[C@@H]2CNC[C@H]3C2)cc1 | 0.3 | 1.16 | 1.42 | 0.0512 (≈ 164 µM) |  | 
